Results reported in the NIST ThermoML archive (doi:10.1021/je8004134).

Assay: an = ratio of the nth substance listed, in mol/kg
Settings: 298.15 K, 101 kPa, Liquid; for speed of sound: Sing-around technique in a fixed-path interferometer; for mass density: Vibrating tube method

[Cu+2].[O-][Cl+3]([O-])([O-])[O-].[O-][Cl+3]([O-])([O-])[O-] [copper perchlorate] + C[S+](C)[O-]
Settings | mass density [kg/m3] | speed of sound [m/s]
a1 = 0.01425 | 1098.31 | 1485
a1 = 0.02779 | 1101.26 | 1485.9
a1 = 0.0419 | 1104.35 | 1486.8
a1 = 0.05636 | 1107.54 | 1487.7
a1 = 0.07067 | 1110.7 | 1488.7
a1 = 0.08366 | 1113.58 | 1489.5
a1 = 0.09783 | 1116.73 | 1490.4
a1 = 0.1114 | 1119.78 | 1491.4
a1 = 0.1251 | 1122.85 | 1492.2
a1 = 0.1384 | 1125.85 | 1493.3

C[S+](C)[O-] [dimethyl sulfoxide] + [Cl-].[Cl-].[Zn+2]
a2 = 0
Settings | mass density [kg/m3] | speed of sound [m/s]
– | 1095.2 | 1484.1

C[S+](C)[O-] [dimethyl sulfoxide] + [Cl][Co][Cl]
a2 = 0
Settings | mass density [kg/m3] | speed of sound [m/s]
– | 1095.19 | 1484.1

C[S+](C)[O-] [dimethyl sulfoxide] + [Cl][Cu][Cl]
a2 = 0
Settings | mass density [kg/m3] | speed of sound [m/s]
– | 1095.2 | 1484.1

C[S+](C)[O-] [dimethyl sulfoxide] + [Cl][Mn][Cl]
a2 = 0
Settings | mass density [kg/m3] | speed of sound [m/s]
– | 1095.19 | 1484.1

C[S+](C)[O-] [dimethyl sulfoxide] + [Cl][Ni][Cl]
a2 = 0
Settings | mass density [kg/m3] | speed of sound [m/s]
– | 1095.19 | 1484.1

C[S+](C)[O-] [dimethyl sulfoxide] + [Co+2].[O-][Cl+3]([O-])([O-])[O-].[O-][Cl+3]([O-])([O-])[O-]
a2 = 0
Settings | mass density [kg/m3] | speed of sound [m/s]
– | 1095.19 | 1484.1

C[S+](C)[O-] [dimethyl sulfoxide] + [Cu+2].[O-][Cl+3]([O-])([O-])[O-].[O-][Cl+3]([O-])([O-])[O-]
a2 = 0
Settings | mass density [kg/m3] | speed of sound [m/s]
– | 1095.2 | 1484.1

C[S+](C)[O-] [dimethyl sulfoxide] + [Mn+2].[O-][Cl+3]([O-])([O-])[O-].[O-][Cl+3]([O-])([O-])[O-]
a2 = 0
Settings | mass density [kg/m3] | speed of sound [m/s]
– | 1095.19 | 1484.1

C[S+](C)[O-] [dimethyl sulfoxide] + [Ni+2].[O-][Cl+3]([O-])([O-])[O-].[O-][Cl+3]([O-])([O-])[O-]
a2 = 0
Settings | mass density [kg/m3] | speed of sound [m/s]
– | 1095.19 | 1484.1

C[S+](C)[O-] [dimethyl sulfoxide] + [O-][Cl+3]([O-])([O-])[O-].[O-][Cl+3]([O-])([O-])[O-].[Zn+2]
a2 = 0
Settings | mass density [kg/m3] | speed of sound [m/s]
– | 1095.2 | 1484.1

[Mn+2].[O-][Cl+3]([O-])([O-])[O-].[O-][Cl+3]([O-])([O-])[O-] [manganese (II) perchlorate] + CC(=O)N(C)C
Settings | mass density [kg/m3] | speed of sound [m/s]
a1 = 0.03006 | 942.406 | 1459.5
a1 = 0.05909 | 948.611 | 1463.1
a1 = 0.08863 | 954.924 | 1466.8
a1 = 0.1177 | 961.136 | 1470.4
a1 = 0.1466 | 967.302 | 1474.1
a1 = 0.1747 | 973.327 | 1477.6
a1 = 0.2018 | 979.1 | 1481.2
a1 = 0.2287 | 984.866 | 1485

[Mn+2].[O-][Cl+3]([O-])([O-])[O-].[O-][Cl+3]([O-])([O-])[O-] [manganese (II) perchlorate] + C[S+](C)[O-]
Settings | mass density [kg/m3] | speed of sound [m/s]
a1 = 0.0211 | 1099.48 | 1485.3
a1 = 0.02843 | 1100.98 | 1485.8
a1 = 0.037 | 1102.73 | 1486.2
a1 = 0.04758 | 1104.9 | 1486.8
a1 = 0.05763 | 1106.97 | 1487.5
a1 = 0.07358 | 1110.26 | 1488.3
a1 = 0.09456 | 1114.62 | 1489.7
a1 = 0.1139 | 1118.65 | 1490.8
a1 = 0.1337 | 1122.82 | 1492
a1 = 0.1566 | 1127.65 | 1493.4
a1 = 0.1754 | 1131.67 | 1494.6

[Cl][Mn][Cl] [manganese chloride] + CC(=O)N(C)C
Settings | mass density [kg/m3] | speed of sound [m/s]
a1 = 0.05753 | 942.406 | 1458.5
a1 = 0.1146 | 948.611 | 1461.2
a1 = 0.1691 | 954.924 | 1463.8
a1 = 0.222 | 961.136 | 1466.5
a1 = 0.2756 | 967.302 | 1469.4
a1 = 0.3266 | 973.327 | 1472.2
a1 = 0.3813 | 979.1 | 1475.5
a1 = 0.433 | 984.866 | 1478.6

[Cl][Mn][Cl] [manganese chloride] + C[S+](C)[O-]
Settings | mass density [kg/m3] | speed of sound [m/s]
a1 = 0.04414 | 1100.11 | 1486.7
a1 = 0.0572 | 1101.48 | 1487.5
a1 = 0.06981 | 1102.79 | 1488.2
a1 = 0.08942 | 1104.86 | 1489.2
a1 = 0.1135 | 1107.39 | 1490.3
a1 = 0.1386 | 1110.03 | 1491.4
a1 = 0.1616 | 1112.45 | 1492.1
a1 = 0.19 | 1115.49 | 1493.2
a1 = 0.213 | 1117.93 | 1494.1

[Cl][Ni][Cl] [nickel chloride (NiCl2)] + CC(=O)N(C)C
Settings | mass density [kg/m3] | speed of sound [m/s]
a1 = 0.019 | 938.196 | 1457
a1 = 0.03382 | 939.871 | 1458
a1 = 0.05743 | 942.54 | 1459.5
a1 = 0.07634 | 944.678 | 1460.8
a1 = 0.09563 | 946.859 | 1462
a1 = 0.114 | 948.937 | 1463.3
a1 = 0.1327 | 951.046 | 1464.5
a1 = 0.1513 | 953.148 | 1465.8

[Cl][Ni][Cl] [nickel chloride (NiCl2)] + C[S+](C)[O-]
Settings | mass density [kg/m3] | speed of sound [m/s]
a1 = 0.01103 | 1096.81 | 1485.1
a1 = 0.01653 | 1097.61 | 1485.5
a1 = 0.02222 | 1098.43 | 1486
a1 = 0.02764 | 1099.21 | 1486.3
a1 = 0.03328 | 1100.03 | 1486.7
a1 = 0.03812 | 1100.72 | 1487.1
a1 = 0.04374 | 1101.53 | 1487.4
a1 = 0.04953 | 1102.36 | 1487.8
a1 = 0.05501 | 1103.13 | 1488.2
